Data reported in patent US6620828B2, “Thiazole compounds and pharmaceutical compositions for inhibiting protein kinases and methods for their use” (Agouron Pharmaceuticals, Inc., priority 1999, dated 2003).

Key:
Type in all cases: biochemical
FL-CHK1 = biological target: T1, FL-CHK1 (Homo sapiens, UniProt O14757); experiment: CHK1 assay; settings: 20 μM; combinatorial library compounds
T1 construct: C-terminally His-tagged full-length human CHK1 (FL-CHK1); 6xHis (C); made in house; host or cells: baculovirus/insect cells
T1 sequence (O14757 1-476): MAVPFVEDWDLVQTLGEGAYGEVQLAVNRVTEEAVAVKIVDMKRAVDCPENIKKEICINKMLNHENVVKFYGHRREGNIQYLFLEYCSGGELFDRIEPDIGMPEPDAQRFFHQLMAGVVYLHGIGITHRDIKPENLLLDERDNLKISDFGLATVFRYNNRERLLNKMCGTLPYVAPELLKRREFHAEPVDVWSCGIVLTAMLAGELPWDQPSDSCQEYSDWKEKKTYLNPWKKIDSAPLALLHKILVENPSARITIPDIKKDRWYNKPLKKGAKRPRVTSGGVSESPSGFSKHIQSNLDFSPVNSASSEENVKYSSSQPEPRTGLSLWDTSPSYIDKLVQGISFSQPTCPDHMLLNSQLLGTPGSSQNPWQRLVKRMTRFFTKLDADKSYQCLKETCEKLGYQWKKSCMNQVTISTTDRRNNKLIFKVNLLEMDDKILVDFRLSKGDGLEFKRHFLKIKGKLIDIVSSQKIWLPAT
Outline: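 Full-length human CHK1 with C-terminal 6×His tag, made in baculovirus/insect cells, 10 nM, phosphorylating 0.125 mM Syntide-2 with 0.15 mM ATP in 50 mM Tris pH 7.5, 25 mM MgCl2, 400 mM NaCl. PK/LDH-coupled NADH oxidation read at 340 nm. Ki from initial rates over varied compound concentrations.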

[1] = biological target: T2, phosphorylated VEGF-R2Δ50 (FLVK-P) (Homo sapiens, UniProt P35968, DEL940-989/E990V); experiment: VEGF-R2 coupled spectrophotometric (FLVK-P) assay; settings: combinatorial library compounds; for inhibition at 20 µM: read-out: VEGF % inhibition at 20 μM, 20 μM
T2 construct: VEGF-R2Δ50 contains residues 806-939 and 990-1171; made in house; host or cells: baculovirus/insect cells
T2 sequence (P35968 with tags, fused parts or gaps DEL940-989/E990V limits assumed): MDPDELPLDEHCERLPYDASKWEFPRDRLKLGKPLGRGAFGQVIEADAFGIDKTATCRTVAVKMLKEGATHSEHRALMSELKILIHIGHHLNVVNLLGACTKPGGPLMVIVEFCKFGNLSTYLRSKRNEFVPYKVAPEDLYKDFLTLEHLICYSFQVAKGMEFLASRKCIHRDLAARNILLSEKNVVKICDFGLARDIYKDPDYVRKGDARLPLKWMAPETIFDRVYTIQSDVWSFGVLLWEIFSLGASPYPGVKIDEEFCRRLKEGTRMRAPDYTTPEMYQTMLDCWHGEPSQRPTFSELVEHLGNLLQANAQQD
Outline: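 Baculovirus-expressed human VEGF-R2Δ50 (residues 806-939/990-1171, E990V) was autophosphorylated with 3 mM ATP, 40 mM MgCl2 for 2 h at 4° C. ADP formation was coupled via PK/LDH to NADH oxidation, read at 340 nm, with 5.1 mM poly(E4Y1), 1 mM ATP, 25 mM MgCl2, Hepes pH 7.5. Ki came from activity across compound concentrations.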

CDK2/Cyclin A complex = CDK2/Cyclin A complex (Homo sapiens, UniProt P24941); experiment: CDK2/Cyclin A assay; settings: 1.0 μM; combinatorial library compounds
Outline: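 Radiometric assay: 150 nM CDK2/cyclin A (insect-cell CDK2, truncated cyclin A) phosphorylates His-tagged Rb fragment (residues 386-928) with 25 μM ATP plus [32P]ATP, pH 7.4 HEPES, 2% DMSO, 30 °C for 20 min. Filter-captured product counted by phosphorimager; apparent Ki from competitive or tight-binding inhibition fits.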

CDK4/Cyclin D3 complex = biological target: T3, CDK4/Cyclin D3 complex (Homo sapiens, UniProt P11802); experiment: CDK4/Cyclin D assay; settings: 1.0 μM; combinatorial library compounds
T3 construct: made in house; host or cells: insect cells co-infected with baculovirus vectors
T3 sequence (P11802 whole entry): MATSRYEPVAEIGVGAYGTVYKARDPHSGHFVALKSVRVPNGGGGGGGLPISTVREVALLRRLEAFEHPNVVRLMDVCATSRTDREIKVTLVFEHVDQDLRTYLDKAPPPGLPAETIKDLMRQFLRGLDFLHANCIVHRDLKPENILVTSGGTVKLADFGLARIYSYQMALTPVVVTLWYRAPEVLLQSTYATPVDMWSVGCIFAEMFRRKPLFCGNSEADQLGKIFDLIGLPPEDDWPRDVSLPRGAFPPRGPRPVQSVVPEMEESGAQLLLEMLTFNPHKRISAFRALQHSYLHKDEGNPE
T3 sequence (P30281 whole entry partner): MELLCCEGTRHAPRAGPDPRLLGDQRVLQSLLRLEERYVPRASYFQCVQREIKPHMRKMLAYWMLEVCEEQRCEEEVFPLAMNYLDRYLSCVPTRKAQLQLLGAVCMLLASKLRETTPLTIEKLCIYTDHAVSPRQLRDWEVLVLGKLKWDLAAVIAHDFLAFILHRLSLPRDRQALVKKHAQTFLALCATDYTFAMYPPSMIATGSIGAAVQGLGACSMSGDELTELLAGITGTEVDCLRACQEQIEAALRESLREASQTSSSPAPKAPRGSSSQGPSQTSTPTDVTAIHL
Outline: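 Insect-cell-expressed CDK4/cyclin D3 (50 nM) phosphorylating His-tagged Rb fragment (residues 386-928) with 25 μM [^32P]ATP in HEPES pH 7.4, MgCl2, 2% DMSO; 20 min at 30 °C, EDTA stop. Filter-captured 32P by phosphorimager; apparent Ki from competitive or tight-binding inhibition fits.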

| SMILES | inhibition at 20 µM (FL-CHK1) [%] | inhibition at 20 µM [1] [%] | inhibition at 1 µM (CDK2/Cyclin A complex) [%] | inhibition at 1 µM (CDK4/Cyclin D3 complex) [%] | CDK4 % Inhibition at 1.0 μM (CDK4/Cyclin D3 complex) [%] | CHK1 % Inhibition at 20 μM (FL-CHK1) [%] | VEGF % inhibition at 20 μM [1] [%] | CDK2 % Inhibition at 1.0 μM (CDK2/Cyclin A complex) [%] |
| --- | --- | --- | --- | --- | --- | --- | --- | --- |
| Cc1c(F)cc(-c2csc(-c3sc(Nc4ccc(C(C)C)cc4)nc3N)n2)cc1Cl | 22.8 | 18 | 28.2 | 88.6 |  |  |  |  |
| Cc1c(-c2csc(-c3sc(Nc4ccc(N(C)C)cc4)nc3N)n2)sc2ccccc12 | 3.2 | 26 | 23.3 | 12.1 |  |  |  |  |
| Cn1cc(-c2csc(-c3sc(Nc4ccc(S(N)(=O)=O)cc4)nc3N)n2)cc1C(=O)C(Cl)(Cl)Cl | 3.3 | -4 | 23.2 | 14 |  |  |  |  |
| Nc1nc(Nc2ccc(S(N)(=O)=O)cc2)sc1-c1nc(-c2ccc(CC(=O)O)s2)cs1 | 11.3 | 11 | 51.6 | 65 |  |  |  |  |
| Cc1cc(-c2csc(-c3sc(Nc4ccc(C(C)C)cc4)nc3N)n2)cc(C)c1O | 5.1 | 45 | 14.1 | 74.6 |  |  |  |  |
| CN(C)c1ccc(Nc2nc(N)c(-c3nc(-c4cc(C(=O)C(Cl)(Cl)Cl)n(C)c4)cs3)s2)cc1 | 5.2 | 3 | 36.7 | 45.2 |  |  |  |  |
| Cc1ccc(-c2csc(-c3sc(Nc4ccc(S(N)(=O)=O)cc4)nc3N)n2)cc1 [drawing 395] | -2.1 | 33 | 20.5 | -9.6 |  |  |  |  |
| Cc1c(C)c(C)c(-c2csc(-c3sc(Nc4ccc(S(N)(=O)=O)cc4)nc3N)n2)c(C)c1C | 29 | 33 | 77.2 | 64.1 |  |  |  |  |
| CC(C)c1ccc(Nc2nc(N)c(-c3nc(-c4ccc(C#N)cc4)cs3)s2)cc1 | 7.1 | 7 | 5.9 | 58.4 |  |  |  |  |
| CN(C)c1ccc(Nc2nc(N)c(-c3nc(-c4ccc5c(c4)OCCO5)cs3)s2)cc1 | 40.8 | 16 | 5 | 56.5 |  |  |  |  |
| CC(C)c1ccc(Nc2nc(N)c(-c3nc(-c4cc5cc(Cl)ccc5o4)cs3)s2)cc1 | 3.4 | -11 | 17 | 33.2 |  |  |  |  |
| CN(C)c1ccc(Nc2nc(N)c(-c3nc(-c4ccccc4)cs3)s2)cc1 [drawing 547] | 13.1 | 17 | 17.2 |  | −48.3 |  |  |  |
| COc1ccc(OC)c(-c2csc(-c3sc(Nc4ccc(C(C)C)cc4)nc3N)n2)c1 | -5.2 | 12 | 12.2 | 79.4 |  |  |  |  |
| CC(C)c1ccc(Nc2nc(N)c(-c3nc(-c4ccc5c(c4)OCCO5)cs3)s2)cc1 | 23.8 | 14 | 22 | 50.6 |  |  |  |  |
| Cc1cc(-c2csc(-c3sc(Nc4ccc(S(N)(=O)=O)cc4)nc3N)n2)ccc1Cl | 15.9 | 2 | 8.3 | -28 |  |  |  |  |
| COc1cccc(-c2csc(-c3sc(Nc4ccc(S(N)(=O)=O)cc4)nc3N)n2)c1 | 15.2 | 23 | 5.9 | -4.2 |  |  |  |  |
| COc1ccc(-c2csc(-c3sc(Nc4ccc(S(N)(=O)=O)cc4)nc3N)n2)cc1 [drawing 425] |  |  |  |  | 40.9 | 10.7 | 11 | 54.2 |
| COc1cc(OC)c(-c2csc(-c3sc(Nc4ccc(S(N)(=O)=O)cc4)nc3N)n2)c(O)c1Cl | 25.6 | 29 | 69.5 | 62.5 |  |  |  |  |
| Cc1ccc(-c2csc(-c3sc(Nc4ccc(C(C)C)cc4)nc3N)n2)c(C)c1 | -2.5 | 14 | 23.3 | 50 |  |  |  |  |
| COc1cccc(-c2csc(-c3sc(Nc4ccc(C(C)C)cc4)nc3N)n2)c1 | 3.8 | 10 | 16 | 49.3 |  |  |  |  |
| Nc1nc(Nc2ccc(S(N)(=O)=O)cc2)sc1-c1nc(-c2ccc(OC(=O)c3ccccc3)cc2)cs1 | 4.4 | 8 | 20.7 | -27 |  |  |  |  |
| CC(C)(C)c1cc(-c2csc(-c3sc(Nc4ccc(S(N)(=O)=O)cc4)nc3N)n2)cc(C(C)(C)C)c1O | 17.5 | -9 | 25 | 17 |  |  |  |  |
| CN(C)c1ccc(Nc2nc(N)c(-c3nc(-c4cc(-c5ccccc5)no4)cs3)s2)cc1 | 0.8 | 5 | 24 | 29.6 |  |  |  |  |
| COc1ccccc1-c1csc(-c2sc(Nc3ccc(N(C)C)cc3)nc2N)n1 | 14.8 | 0 | -6.4 | 8.7 |  |  |  |  |
| CC(C)c1ccc(Nc2nc(N)c(-c3nc(-c4ccccc4)cs3)s2)cc1 [drawing 498] |  |  |  |  | 59.4 | 0.2 | 22 | 18.5 |
| CN(C)c1ccc(Nc2nc(N)c(-c3nc(-c4ccc(O)cc4)cs3)s2)cc1 | 47.1 | 46 | 26.6 | 66.8 |  |  |  |  |
| CN(C)c1ccc(Nc2nc(N)c(-c3nc(-c4cccc(OC(=O)c5ccccc5)c4)cs3)s2)cc1 | 23.3 | 16 | 0.6 | 57.5 |  |  |  |  |
| Nc1nc(Nc2ccc(S(N)(=O)=O)cc2)sc1-c1nc(-c2ccccc2)cs1 [drawing 421] | 11.2 | 23 |  |  | −33.4 |  |  | 8.2 |
| COc1cc(OC)c(-c2csc(-c3sc(Nc4ccc(N(C)C)cc4)nc3N)n2)c(O)c1Cl | 41.1 | 36 | 24.1 | 69.3 |  |  |  |  |
